In US9884812B2, “Use of DDX3X inhibitors for the treatment of pneumovirus infections” (priority 2014, dated 2018):
In brackets after ≈: the same amount, converted by molar mass. Read-outs that look alike come from different tables or passages of the source.

Assays:
Bovine RSV = experiment: Plaque inhibition assay, bovine RSV; assay type: cell-based, bovine respiratory syncytial virus; conditions: for IC50: bovine RSV, 6-day assay, HEp2 cells; for Plaque size: bRSV plaque assay
Protocol: (§1) An identical assay procedure was carried out for hRSV (strain A2) bovine RS (strain Snook) and PVM (strain 15). Virus stocks were diluted 10 fold in GMEM (Invitrogen) so that the wells containing cells received sufficient virus to generate approximately 2000, 200 and 20 plaques per well.
(§2) Cells of a standard cell line known to support pneumovirus replication (typically HEp2 or BSC1 cells) were grown in standard 12 well plates at 37° C. in an atmosphere of 5% (v/v) CO2 until confluent. Medium was aspirated from the cells and replaced with 200 μl aliquots of virus. Aliquots were prepared by diluting virus stocks 10-fold in GMEM (Invitrogen) as described above with no FCS. A mock (no virus) was also set up to test cell viability. The virus was incubated with the cells for 1 hour at 33° C. with gentle rocking every 5-10 minutes. The inocula were removed and 2 ml of overlay medium was added. Overlay medium was either test (plus compound) or control (medium alone or medium containing DMSO). The plates were incubated at 33° C. for 4-8 days to allow plaques to develop as indicated. A volume of 1 ml of additional overlay medium (containing the test compound as appropriate) was added every 3 days. All virus dilutions were carried out with each concentration of test compound, or treated as controls, and each was carried out in triplicate.
(§3) Following incubation, cells were fixed by addition of an equal volume of 4% (v/v) glutaraldehyde (Sigma) in PBS with further incubation for a minimum of 2 hours. The fixing solution was washed off under a slow flowing stream of water and 1 ml of crystal violet (0.075% w/v: Sigma) was added and left for 20 minutes at room temperature. The crystal violet was removed and the fixed cell monolayers washed. Plates were air dried. Plaques counts were recorded from wells with >20 and <200 in number. These numbers provide the most robust statistical reliability for viable plaque counts.
(§4) Compounds 1, 4 and 6 were also tested against bovine RSV and pneumonia virus of mice (PVM).
The compounds were tested with a 6-day assay using HEp2 cells.

hRSV (strain A2) = experiment: Plaque inhibition assay, hRSV; assay type: cell-based, human respiratory syncytial virus; conditions: for Plaque size relative to DMSO control: hRSV plaque assay; for IC50: human respiratory syncytial virus, read-out: IC50 (plaque number vs DMSO control)
Protocol: Example: Plaque inhibition assay
as §1
The overlay medium also contained the compound to be tested at appropriate concentrations. Typically the 6 concentrations of the test compounds used were: 100 μM, 31.6 μM, 10 μM, 3.16 μM, 1 μM and 0.316 μM.
Stocks of the test compounds were prepared in DMSO (Sigma) (carrier). Each stock compound was diluted 1 in 200 in overlay medium to give dilutions stated above.
as §2, §3
This experimental approach screens the ability of compounds to block the formation of plaques.

[1] = Solubility in cell medium; assay type: physicochemical; conditions: for Solubility in cell medium: solution of ligand in DMSO (20 mM) diluted in cell media to 100 μM, scale from 'very poor' (almost insoluble) to 'very good' (freely soluble over extended periods at 4° C.); for Solubility behaviour in cell medium: at 100 μM
HEp2 cells [2] = experiment: Toxicity observed in plaque assay, HEp2 cells; assay type: cell-based
Protocol: as §2

HEp2 cells [3] = experiment: MTT toxicity assay; assay type: cell-based; conditions: for Appearance of cell monolayers: compared with carrier controls
Protocol: All experiments shown were carried out in HEp2 cells. Cells were grown in 96 well plates overnight as previously described in 10% FCS medium to 95% confluence level. The medium was aspirated off and replaced with 200ul media with 2% FCS +/− compounds in DMSO carrier as indicated at an identical dilution series to that used in the plaque assays. 8 wells were used per compound/carrier alone dilution. An additional 2 rows of 8 cells were grown in medium alone for reference and subsequently 8 would be used as a cell death control as described below. Cells were incubated at 33° C. as indicated. If the incubation period exceeded 4 days the medium was replaced with the appropriate amount of fresh medium plus compound.
MTT assays were commenced 4 hours before the time period expired. Here 20 uL of MTT [(3-{4,5-dimethylthiazol-2-yl}-2,5-diphenyltetrazolium bromide)] solution (7.5 mg/ml in
PBS) was added. […] The cells were placed back in the incubator at 33° C. After 4 hours, 100 μL of a stop solution (50% formamide, 20% w/v SDS) was added and pipetted to dissolve the substrate. Plates were then left overnight to allow the bubbles to disappear and the OD was recorded at 595 nm. Following subtraction of background solution colour (cell death control), the optical density was expressed as a percentage compared to the DMSO control on each appropriate plate.

PVM (strain 15) = experiment: Plaque inhibition assay, PVM; assay type: cell-based, pneumonia virus of mice; conditions: for Plaque size: PVM plaque assay; for IC50: murine pneumonia virus, PVM, HEp2 cells
Protocol: as §1, §2, §3, §4
A full plaque assay was carried out for compound 4 using HEp2 cells, with assays of 5 days and 6 days after incubation.

HEp2 or BSC1 cells = experiment: Toxicity to cells in the TCID50 screen (mock control); assay type: cell-based; conditions: cellular RSV TCID50 assay tables
Protocol: This method provides a rapid approach to initially screen compounds and was developed as an increased number of compounds were synthesised. […] Virus was then added over 5 different half log dilutions starting at a multiplicity of infection of 0.02 plus mock control. Three dilutions of compound plus a DMSO control were screened per plate. […] Identical plate repeats for each compound dilution were fixed in subsequent days as indicated.

BSC1 cells = experiment: Toxicity observed in plaque assay, BSC1 cells; assay type: cell-based; conditions: at 100 μM
Protocol: as §2

RSV = experiment: 96 well plate TCID50 (cellular RSV TCID50 assay); assay type: cell-based; conditions: at >10 μM
Protocol: This method provides a rapid approach to initially screen compounds and was developed as an increased number of compounds were synthesised. Cells of a standard cell line known to support pneumovirus replication (typically HEp2 or BSC1 cells) were grown to 95% confluence in a 96 well plate. Virus was then added over 5 different half log dilutions starting at a multiplicity of infection of 0.02 plus mock control. Three dilutions of compound plus a DMSO control were screened per plate. […] Identical plate repeats for each compound dilution were fixed in subsequent days as indicated.
Stained plates were read at 595 nm, higher optical density (OD) readings indicate more viable cells remain.

[4] = Bovine orthopneumovirus, HEp-2, 144 h, read-out: IC50
[5] = HEp-2, 120 h, hRSV, HEp2 cells, Day 5

SMILES	Plaque size (Bovine RSV)	Plaque size relative to DMSO control (hRSV (strain A2))	IC50 (hRSV (strain A2); [5])	Solubility in cell medium [1]	Appearance of cell monolayers (HEp2 cells [3])	Plaque size (PVM (strain 15))	Toxicity (HEp2 or BSC1 cells)	Solubility behaviour in cell medium [1]	other results
CSc1cccc(NC(=O)Nc2ccccc2C)c1 [Compound 4, 1-(2-methylphenyl)-3-[3-(methylsulfanyl)phenyl]urea]	significantly reduce the size of plaques	significantly reduce the size of plaques	4.1 µM	good	appeared intact	significantly reduce the size of plaques	some toxicity at 100 μM		IC50 (Bovine RSV; [4]): 80 µM; IC50 (hRSV (strain A2); HEp-2, 144 h, hRSV, HEp2 cells, Day 6): 8.5 µM; IC50 (hRSV (strain A2); HEp-2, 168 h, hRSV, HEp2 cells, Day 7): 15 µM; Toxicity in plaque assay (HEp2 cells [2]; at 10 μM): No obvious toxicity; Toxicity in plaque assay (HEp2 cells [2]; at 31.6 μM): to some degree; Toxicity in plaque assay (HEp2 cells [2]; at 100 μM): showed toxicity; IC50 (PVM (strain 15); HEp-2, 120 h, day 5): 32 µM; IC50 (PVM (strain 15); HEp-2, 144 h, day 6): 100 µM
CSc1cccc(NC(=O)NCCCOCCOCCOCCCNC(=O)Nc2cccc(SC)c2)c1 [Compound 36, 1-[3-(methylsulfanyl)phenyl]-3-[3-(2-{2-[3-({[3-(methylsulfanyl)-phenyl]carbamoyl}amino)propoxy]ethoxy}ethoxy)propyl]urea]				good					melting point: 106 to 108 °C
CSc1ccc(NC(=O)NCCCOCCOCCOCCCNC(=O)Nc2ccc(SC)cc2)cc1 [Compound 37, 1-[4-(methylsulfanyl)phenyl]-3-[3-(2-{2-[3-({[4-(methylsulfanyl)-phenyl]carbamoyl}amino)propoxy]ethoxy}ethoxy)propyl]urea]			17.5 µM	good	appeared intact		toxic at 50 μM	some signs of precipitating out of solution	Toxicity in plaque assay (HEp2 cells [2]; at 100 μM): showed toxicity
Cc1ccccc1NC(=O)Nc1cccc(C(F)(F)F)c1 [Compound 40, 1-(o-tolyl)-3-(3-(trifluoromethyl)phenyl)urea]				Good			Low		Inhibition of plaque formation (hRSV (strain A2); hRSV, BSC1 cells, 4 day assay): moderate inhibition; Toxicity in plaque assay (BSC1 cells): low toxicity
Cc1ccccc1NC(=O)Nc1ccc(C#N)cc1 [Compound 6, 1-(4-cyanophenyl)-3-(2-methylphenyl)urea]	significantly reduce the size of plaques	significantly reduce the size of plaques	10 µM	good	appeared intact	significantly reduce the size of plaques	low		IC50 (Bovine RSV; [4]): 15 µM; IC50 (plaque number vs DMSO control) (hRSV (strain A2); hRSV, HEp2 cells, Day 6): 50% reduction was not reached; IC50 (plaque number vs DMSO control) (hRSV (strain A2); hRSV, HEp2 cells, Day 7): 50% reduction was not reached
Cc1ccccc1NC(=O)Nc1cccc([N+](=O)[O-])c1 [Compound 1, 3-(2-methylphenyl)-1-(3-nitrophenyl)urea]	significantly reduce the size of plaques	significantly reduce the size of plaques		poor		significantly reduce the size of plaques	toxic at 32 μM	appearance of insolublity	IC50 (Bovine RSV): precipitated out before 50% reduction was seen; Plaque size relative to DMSO control (hRSV (strain A2); listed as compound 1): smaller than in the DMSO control; solubility ([1]; cell medium, aqueous buffer, kinetic from dmso stock, read-out: Upper limit of soluble concentration): 5 to 10 µM (≈ 1.36 to 2.71 µg/mL); Sensitivity in MTT assay (HEp2 cells [3]; days 3 and 4, disappeared after 5 days): increased sensitivity; Concentration above which inhibition of activity is seen (MTT) (HEp2 cells [3]; over the time course): above 10 μM; Activity in the TCID50 assay at higher concentration (RSV): no increase in activity
Cc1ccccc1NC(=O)Nc1cccc(Cl)c1 [Compound 39, 1-(3-chlorophenyl)-3-(o-tolyl)urea]		reduction in plaque numbers (as shown) and size		Moderate at 100 μM			Some toxicity at 100 μM	moderately soluble	IC50 (hRSV (strain A2); BSC-1, 96 h, hRSV, BSC1 cells, 4 day assay): 16.5 µM; Toxicity in plaque assay (BSC1 cells): some toxicity
